For one test, the system named is occludin mRNA. The test is described as follows: qPCR of occludin in PHK treated with ciglitazone. The class given is cell-based, human. The settings on record: CIG 5 μM, 24 h, PHK in high Calcium media (DMEM). As for the experimental part:
(§1) PHK were differentiated in high Calcium media (DMEM) in the presence of CIG 5 μM in DMSO or media with equivalent amount of DMSO alone, for 24 h. Total RNA was extracted from PHK using the QlAshredder spin column (Qiagen) and RNeasy RNA isolation kits (Qiagen). The quality of total RNA samples (RNA Integrity Number, RIN) was assessed using an Agilent 2100 Bioanalyzer (Agilent Technologies, Palo Alto, Calif.).
(§2) qPCR was performed using the iScript™ cDNA Synthesis kit and iQ™ SYBER Green Supermix assay system (Bio-Rad Laboratories). All PCR amplifications were carried out in triplicate on an iQ5 Multicolor real-time PCR detection system (Bio-Rad). Primers were designed and synthesized by Integrated DNA Technologies. Relative gene expression was calculated by using the 2^−ΔΔCt method, as previously described. The normalized Ct value of each sample was calculated using GAPDH as an endogenous control gene.

The subject of another test is CLDN1 mRNA. Nature of the test: qPCR of CLDN1 in PHK treated with ciglitazone. The following applies: CIG 5 μM, 24 h, PHK in high Calcium media (DMEM). The class given is cell-based, human. Here is the method: as §1, §2
On the technique in general: Real-time PCR tracks product formation cycle by cycle.

A further test relates to human epidermis sheet. Nature of the test: TEER of human epidermal sheets treated with sodium decanoate. The class given is cell-based. The settings on record: 1 mM, T0. From the text:
Epidermal sheets were obtained from discarded human skin using a weck blade (0.08 inch). Epidermal samples were mounted in an adapted snap-well system (Pierro et al., “Zonula Occludens Toxin Structure-Function Analysis, Identification of the Fragment Biologically Active on Tight Junctions and of the Zonulin Receptor Binding Domain,” J. Biol.

The subject of test [1] is human cultured keratinocytes and reconstructed human epidermis. The settings on record: Kurasawa et al. 2009; cited from earlier work.
In a further test the test system is claudin-1. The test is described as follows: Western blot of claudin-1 in PHK differentiated with Th2 cytokines. The class given is cell-based, human. The settings on record: 48 hours, 50 ng/ml, n=3. Here is the method:
(§3) Human keratinocytes were isolated from neonatal foreskin. Poumay et al., “Basal Detachment of the Epidermis Using Dispase: Tissue Spatial Organization and Fate of Integrin Alpha 6 Beta 4 and Hemidesmosomes,” J. Invest. Dermatol. 102:111-7 (1994), which is hereby incorporated by reference in its entirety. PHK were cultured in Keratinocyte-SFM (Invitrogen/Gibco) with 1% Pen/Strep, 0.2% Amphotericin B (Invitrogen/Gibco). To differentiate PHK, cells were grown in DMEM (Invitrogen/Gibco) with 10% heat-inactivated fetal bovine serum (Invitrogen/Gibco) and 1% Pen/Strep, 0.2% Amphotericin B (Invitrogen/Gibco). For TJ modulation experiments, the following cytokines were added alone or in combination to the differentiation media; human IL-4 (50 ng/ml; R&D system) and IL-13 (50 ng/ml; R&D system). […]
(§4) Previous studies have shown that claudin-1 expression in noncutaneous epithelial cells can be modulated by cytokines and growth factors. […] To test this possibility, PHK were differentiated in the presence or absence of Th2 cytokines, IL-4 and IL-13, and the expression of claudin-1, occludin and ZO-1 was evaluated. […]
(Immunoblotting shows a protein as a band on a membrane.)

The subject of the next test is occludin and ZO-1. The test is described as follows: Expression of occludin and ZO-1 in PHK differentiated with Th2 cytokines. The class given is cell-based, human. The settings on record: PHK differentiated with cytokine. As for the experimental part:
as §3, §4

The subject of test [2] is primary human keratinocytes (PHK). Nature of the test: Trans Epithelial Electric Resistance (TEER) of PHK. The class given is cell-based. As for the experimental part:
Human keratinocytes were isolated from neonatal foreskin. Poumay et al., “Basal Detachment of the Epidermis Using Dispase: Tissue Spatial Organization and Fate of Integrin Alpha 6 Beta 4 and Hemidesmosomes,” J. Invest. Dermatol. 102:111-7 (1994), which is hereby incorporated by reference in its entirety. PHK were cultured in Keratinocyte-SFM (Invitrogen/Gibco) with 1% Pen/Strep, 0.2% Amphotericin B (Invitrogen/Gibco). To differentiate PHK, cells were grown in DMEM (Invitrogen/Gibco) with 10% heat-inactivated fetal bovine serum (Invitrogen/Gibco) and 1% Pen/Strep, 0.2% Amphotericin B (Invitrogen/Gibco). For TJ modulation experiments, the following cytokines were added alone or in combination to the differentiation media; human IL-4 (50 ng/ml; R&D system) and IL-13 (50 ng/ml; R&D system).
PHK were plated at a subconfluent density of 2.5−3×10^4 cells/filter in Transwell insert and cultured in Keratinocyte-SFM media until confluent. TEER was measured using an EVOMX voltohmmeter (World Precision Instruments, Sarasota, Fla.). The resistance of cell-free filters was subtracted from each experimental value.
PHK were plated on glass coverslips at 2-3×10^5 cells/well in a 6-well plate or at 2-3×10^4 cells/filter in Transwell insert (Costar; PET membrane, 0.4 μm pore size, 6.5 mm insert) in Keratinocyte-SFM without antibiotics. The next day after plating, cells were transfected with claudin-1 specific or control (scrambled) siRNAs (Santa Cruz) using Lipofectamine™ 2000 transfection Reagent (Invitrogen). TEER and permeability experiments were conducted 48 hours after PHK were switched to differentiation media.
TEER was measured in PHK as described above. PHK were stimulated with S. aureus-derived peptidoglycan (PGN, 0.2-20 μg/ml, n=3-7) (FIG. 19A), Malp-2 (10-1000 ng/ml, n=3) (FIG. 19B), and Pam3CSK4 a TLR1/2 ligand (0.01-20 μg/ml, n=3-6) (FIG. 19C). Data are presented by analyzing the area under the TEER curve and normalized to the mean values for the control group (media alone)*p<0.05; **p<0.01.

Test [3] has as its system CLDN1, occludin, ZO-1 and CLDN23. Nature of the test: Western blot of TJ proteins in PHK treated with PGN or TLR2 ligands. The class given is cell-based, human. The settings on record: 48 hr; PGN 0.2-20 μg/ml, Pam3CSK4 0.1-20 μg/ml, MALP2 10-1000 ng/ml. Here is the method: PHFK were treated with PGN (0, 0.2, 2, 20 μg/ml) (as shown in FIG. 21A), Pam3CSK4 (0, 0.1, 1, 20 μg/ml) (as shown in FIG. 21B), MALP2 (0, 10, 100, 1000 ng/ml) for 48 hr and CLDN1 (as shown in FIG. 21C), occludin, ZO-1 and CLDN23 protein levels were detected from whole cell lysates by Western blot. Quantitative protein expression was determined by densitometry of bands and normalization to the housekeeping protein ([…]). (Representative blot of n=2-3 experiments).

claudin-1, sequence (O95832 whole entry): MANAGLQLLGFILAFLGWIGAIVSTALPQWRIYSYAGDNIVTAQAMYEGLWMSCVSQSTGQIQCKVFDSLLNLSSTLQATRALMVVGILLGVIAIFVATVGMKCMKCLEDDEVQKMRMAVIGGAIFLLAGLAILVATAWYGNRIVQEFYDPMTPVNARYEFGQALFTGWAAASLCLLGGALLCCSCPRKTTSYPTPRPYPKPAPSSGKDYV

On to `CC1(COc2ccc(CC3SC(=O)NC3=O)cc2)CCCCC1` (stereo not shown) [ciglitazone], for which the “occludin mRNA, fold” value in the test on occludin mRNA was 2.0 fold; in the test with occludin mRNA (listed as CIG), 2 fold. The “CLDN1 mRNA, fold over DMSO alone” value in the test with CLDN1 mRNA turned out to be 1.7 fold.
With `CCCCCCCCCC(=O)[O-].[Na+]` [sodium decanoate], in the test on human epidermis sheet, the “TEER, dmem + SC_1” value came out at 1.00; the “TEER, dmem + SC_2” value turned out to be 1.00; the “TEER, mean SC” value turned out to be 1.00. Also, in test [1], the paracellular permeability result is on record as “increased paracellular permeability” and the transepithelial electrical resistance result is given as “decreased transepithelial electrical resistance”.
For the molecule IL-13: IL-13 (R&D system), Th2 cytokine, the “claudin-1 expression, fold over control” value in the test on claudin-1 came out at 1.6±0.3 fold. Further, the “effect on expression of occludin and ZO-1” value with occludin and ZO-1 is “no effect”. In addition, in test [2] (0.5-100 ng/ml, PHK), the “effect on TEER in dose response experiments” value was “slight increase in TEER”.
With Malp-2 [reference compound], the TJ protein expressions entry in test [3] is recorded as “increase TJ protein expressions”. Also, in test [2] (PGN 0.2-20 μg/ml, Malp-2 10-1000 ng/ml, Pam3CSK4 0.01-20 μg/ml), the “tight junction function (area under the TEER curve normalized to media alone)” value is listed as “increase tight junction function”.
On to Pam3CSK4, for which the TJ protein expressions entry in test [3] was “increase TJ protein expressions”.

B1: IL-4: human IL-4 (R&D system), Th2 cytokine (protein, UniProt P05112 25-153, looked up)
Interleukin-4: HKCDITLQEIIKTLNSLTEQKTLCTELTVTDIFAASKNTTEKETFCRAATVLRQFYSHHEKDTRCLGATAQQFHRHKQLIRFLKRLDRNLWGLAGLNSCPVKEANQSTLENFLERLKTIMREKYSKCSS
As for B1, the “claudin-1 expression, fold over control” value with claudin-1 is 2.1±0.4 fold. In the test with occludin and ZO-1, the “effect on expression of occludin and ZO-1” value is reported as “no effect”.

The record behind these values is patent publication US20130046257A1, “METHODS OF USING AGENTS THAT MODULATE CLAUDIN EXPRESSION” (priority 2010, published 2013).
